In paper PMC8550792, “Evolution of kinase polypharmacology across HSP90 drug discovery” (Cell Chemical Biology, 2021):
pIC50, pKd: −log10 of the molar value. Where two headings read alike, the source gives them in different places.

Columns and labels:
382 unique human kinases [1] = target: T1, 382 unique human kinases (Homo sapiens, UniProt Q9NYL2); experiment: biochemical; type: biochemical; settings: ZAK/MLTK; [ATP] 50 µM; read-out: Control Compound IC50*
T1 construct: purchased Reaction Biology (HotSpot contract assay)

382 unique human kinases [2] = experiment: biochemical; type: biochemical; settings: read-out: Control Compound IC50*
382 unique human kinases [3] = target: T2, 382 unique human kinases (Homo sapiens, UniProt Q15120); experiment: biochemical; type: biochemical; settings: PDK3/PDHK3; [ATP] 30 µM; read-out: Control Compound IC50*
T2 construct: purchased Reaction Biology (HotSpot contract assay)

382 unique human kinases [4] = target: T3, 382 unique human kinases (Homo sapiens, UniProt Q15118); experiment: biochemical; type: biochemical; settings: PDK1/PDHK1; [ATP] 50 µM; read-out: Control Compound IC50*
T3 construct: purchased Reaction Biology (HotSpot contract assay)

382 unique human kinases [5] = target: T4, 382 unique human kinases (Homo sapiens, UniProt P68400); experiment: biochemical; type: biochemical; settings: CK2a; read-out: Control Compound IC50*
T4 construct: purchased Reaction Biology (HotSpot contract assay)

382 unique human kinases [6] = target: T5, 382 unique human kinases (Homo sapiens, UniProt Q15119); experiment: biochemical; type: biochemical; settings: PDK2/PDHK2; [ATP] 15 µM; read-out: Control Compound IC50*
T5 construct: purchased Reaction Biology (HotSpot contract assay)

382 unique human kinases [7] = target: T6, 382 unique human kinases (Homo sapiens, UniProt Q9Y572); experiment: biochemical; type: biochemical; settings: RIPK3; [ATP] 2.5 µM; read-out: Control Compound IC50*
T6 construct: purchased Reaction Biology (HotSpot contract assay)

382 unique human kinases [8] = target: T7, 382 unique human kinases (Homo sapiens, UniProt P10398); experiment: biochemical; type: biochemical; settings: ARAF; read-out: Control Compound IC50*
T7 construct: purchased Reaction Biology (HotSpot contract assay)
T7 sequence (P10398 1-606): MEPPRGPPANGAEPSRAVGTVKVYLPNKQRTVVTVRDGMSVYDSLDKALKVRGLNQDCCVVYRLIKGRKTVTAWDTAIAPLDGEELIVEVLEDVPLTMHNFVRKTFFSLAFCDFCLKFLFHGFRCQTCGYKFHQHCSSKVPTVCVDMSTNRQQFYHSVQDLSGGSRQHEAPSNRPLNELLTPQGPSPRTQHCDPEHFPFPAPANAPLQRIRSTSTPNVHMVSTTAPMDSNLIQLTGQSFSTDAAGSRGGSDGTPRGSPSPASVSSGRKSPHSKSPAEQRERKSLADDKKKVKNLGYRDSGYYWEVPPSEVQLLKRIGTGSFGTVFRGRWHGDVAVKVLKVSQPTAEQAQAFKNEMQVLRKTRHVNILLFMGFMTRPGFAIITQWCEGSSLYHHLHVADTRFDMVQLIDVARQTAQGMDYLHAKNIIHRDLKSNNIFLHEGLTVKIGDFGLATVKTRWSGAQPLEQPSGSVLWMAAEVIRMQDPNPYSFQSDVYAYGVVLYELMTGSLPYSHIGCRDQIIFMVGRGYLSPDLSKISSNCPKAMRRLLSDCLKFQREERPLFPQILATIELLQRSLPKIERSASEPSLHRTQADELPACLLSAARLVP

382 unique human kinases [9] = target: T8, 382 unique human kinases (Homo sapiens, UniProt Q9NR20); experiment: biochemical; type: biochemical; settings: DYRK4; read-out: Control Compound IC50*
T8 construct: purchased Reaction Biology (HotSpot contract assay)
T8 sequence (Q9NR20 1-520): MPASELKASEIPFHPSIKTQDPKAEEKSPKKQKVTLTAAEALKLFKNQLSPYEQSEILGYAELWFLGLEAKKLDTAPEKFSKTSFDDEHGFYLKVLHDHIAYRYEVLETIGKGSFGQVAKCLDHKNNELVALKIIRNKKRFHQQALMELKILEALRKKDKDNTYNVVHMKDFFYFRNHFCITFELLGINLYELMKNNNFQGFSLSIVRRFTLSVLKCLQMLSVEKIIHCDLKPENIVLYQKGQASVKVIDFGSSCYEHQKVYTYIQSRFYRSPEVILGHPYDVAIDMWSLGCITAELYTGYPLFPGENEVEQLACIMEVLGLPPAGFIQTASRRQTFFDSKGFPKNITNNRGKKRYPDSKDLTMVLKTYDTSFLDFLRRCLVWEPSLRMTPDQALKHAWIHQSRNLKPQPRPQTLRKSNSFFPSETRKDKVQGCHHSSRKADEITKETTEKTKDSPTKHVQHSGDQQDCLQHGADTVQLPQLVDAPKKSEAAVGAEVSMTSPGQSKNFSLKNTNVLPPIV

382 unique human kinases [10] = target: T9, 382 unique human kinases (Homo sapiens, UniProt Q16654); experiment: biochemical; type: biochemical; settings: PDK4/PDKH4; [ATP] 30 µM; read-out: Control Compound IC50*
T9 construct: purchased Reaction Biology (HotSpot contract assay)

PDK4/PDKH4 = target: T10, PDK4/PDKH4 (Homo sapiens, UniProt Q16654); experiment: HotSpot in vitro kinase radiometric assay; type: biochemical; settings: PDK4/PDKH4; ATP 30 uM; read-out: IC50 (M) Control Cmpd
T10 construct: purchased Reaction Biology (HotSpot contract assay)
Method: (§1) Accordingly, we selected five additional representative HSP90 inhibitors, at least one from each chemical class, including both synthetic inhibitors and natural products. […]
(§2) This radioisotope binding assay was designed to directly detect the true product without the use of modified substrates, coupling enzymes, or detection antibodies thus enabling to directly measure inhibition of catalytic activity. Test or control compounds were incubated with kinase, substrate, cofactors, and radioisotope-labeled ATP (32P-ɣ-ATP or 33P-ɣ-ATP). The reaction mixtures were then spotted onto filter papers, which bind the radioisotope-labeled catalytic product.

PDK2/PDHK2 = target: T11, PDK2/PDHK2 (Homo sapiens, UniProt Q15119); experiment: HotSpot in vitro kinase radiometric assay; type: biochemical; settings: PDK2/PDHK2; ATP 15 uM; read-out: IC50 (M) Control Cmpd
T11 construct: purchased Reaction Biology (HotSpot contract assay)
Method: as §1, §2

[11] = target: human 3-methyl-2-oxobutanoate dehydrogenase kinase (BCKDHK); set-up: method as in Besant et al., 2002; settings: ref Besant et al., 2002; cited from earlier work
ABL2/ARG = target: T12, ABL2/ARG (Homo sapiens, UniProt P42684); experiment: HotSpot in vitro kinase radiometric assay; type: biochemical; settings: ABL2/ARG; 10uM; ATP 30 uM; Data 1, Data 2; read-out: % Enzyme Activity (relative to DMSO controls)
T12 construct: purchased Reaction Biology (HotSpot contract assay)

[12] = target: bacterial sensor kinase PhoQ; set-up: method as in Guarnieri et al., 2008; settings: ref Guarnieri et al., 2008; cited from earlier work
LCK = target: T13, LCK (Homo sapiens, UniProt P06239); experiment: HotSpot in vitro kinase radiometric assay; type: biochemical; settings: LCK; 10uM; ATP 15 uM; Data 1, Data 2; read-out: % Enzyme Activity (relative to DMSO controls)
T13 construct: purchased Reaction Biology (HotSpot contract assay)

TRKC = target: T14, TRKC (Homo sapiens, UniProt Q16288); experiment: HotSpot in vitro kinase radiometric assay; type: biochemical; settings: TRKC; 10uM; ATP 100 uM; Data 1, Data 2; read-out: % Enzyme Activity (relative to DMSO controls)
T14 construct: purchased Reaction Biology (HotSpot contract assay)

FGR = target: T15, FGR (Homo sapiens, UniProt P09769); experiment: HotSpot in vitro kinase radiometric assay; type: biochemical; settings: FGR; 10uM; ATP 50 uM; Data 1, Data 2; read-out: % Enzyme Activity (relative to DMSO controls)
T15 construct: purchased Reaction Biology (HotSpot contract assay)

YES/YES1 = target: T16, YES/YES1 (Homo sapiens, UniProt P07947); experiment: HotSpot in vitro kinase radiometric assay; type: biochemical; settings: YES/YES1; 10uM; ATP 50 uM; Data 1, Data 2; read-out: % Enzyme Activity (relative to DMSO controls)
T16 construct: purchased Reaction Biology (HotSpot contract assay)

TRKA = target: T17, TRKA (Homo sapiens, UniProt P04629); experiment: HotSpot in vitro kinase radiometric assay; type: biochemical; settings: TRKA; 10uM; ATP 100 uM; Data 1, Data 2; read-out: % Enzyme Activity (relative to DMSO controls)
T17 construct: purchased Reaction Biology (HotSpot contract assay)
From the text: (§3) Accordingly, we selected five additional representative HSP90 inhibitors, at least one from each chemical class, including both synthetic inhibitors and natural products.
(§4) Accordingly, we screened the hit compound and the two leads for kinase off-target inhibition using the 16-kinase panel and the same in vitro catalytic assay used previously.
as §2

PASK = target: T18, PASK (Homo sapiens, UniProt Q96RG2); experiment: HotSpot in vitro kinase radiometric assay; type: biochemical; settings: PASK; 10uM; ATP 50 uM; Data 1, Data 2; read-out: % Enzyme Activity (relative to DMSO controls)
T18 construct: purchased Reaction Biology (HotSpot contract assay)
From the text: as §3, §4, §2

16-kinase panel = 16-kinase panel screening, in vitro radiometric assay; type: biochemical, human; settings: 10 μM
FYN = target: T19, FYN (Homo sapiens, UniProt P06241); experiment: HotSpot in vitro kinase radiometric assay; type: biochemical; settings: FYN; 10uM; ATP 30 uM; Data 1, Data 2; read-out: % Enzyme Activity (relative to DMSO controls)
T19 construct: purchased Reaction Biology (HotSpot contract assay)

DDR1 = DDR1 (Homo sapiens, UniProt Q08345); experiment: HotSpot in vitro kinase radiometric assay; type: biochemical; set-up: purchased Reaction Biology (HotSpot contract assay); settings: DDR1; 10uM; ATP 100 uM; Data 1, Data 2; read-out: % Enzyme Activity (relative to DMSO controls)
ABL1 = ABL1 (Homo sapiens, UniProt P00519); experiment: HotSpot in vitro kinase radiometric assay; type: biochemical; set-up: purchased Reaction Biology (HotSpot contract assay); settings: ABL1; 10uM; ATP 40 uM; Data 1, Data 2; read-out: % Enzyme Activity (relative to DMSO controls)
PEAK1 = target: T20, PEAK1 (Homo sapiens, UniProt Q9H792); experiment: HotSpot in vitro kinase radiometric assay; type: biochemical; settings: PEAK1; 10uM; ATP 30 uM; Data 1, Data 2; read-out: % Enzyme Activity (relative to DMSO controls)
T20 construct: purchased Reaction Biology (HotSpot contract assay)

LYN B = target: T21, LYN B (Homo sapiens, UniProt P07948); experiment: HotSpot in vitro kinase radiometric assay; type: biochemical; settings: LYN B; 10uM; ATP 20 uM; Data 1, Data 2; read-out: % Enzyme Activity (relative to DMSO controls)
T21 construct: purchased Reaction Biology (HotSpot contract assay)
Method: as §1, §2

BLK = target: T22, BLK (Homo sapiens, UniProt P51451); experiment: HotSpot in vitro kinase radiometric assay; type: biochemical; settings: BLK; 10uM; ATP 10 uM; Data 1, Data 2; read-out: % Enzyme Activity (relative to DMSO controls)
T22 construct: purchased Reaction Biology (HotSpot contract assay)
Method: as §1, §2

c-Src = target: T23, c-Src (Homo sapiens, UniProt P12931); experiment: HotSpot in vitro kinase radiometric assay; type: biochemical; settings: c-Src; 10uM; ATP 15 uM; Data 1, Data 2; read-out: % Enzyme Activity (relative to DMSO controls)
T23 construct: purchased Reaction Biology (HotSpot contract assay)
Method: as §1, §2

[13] = target: human pyruvate dehydrogenase kinases; set-up: method as in Kato et al., 2007; settings: ref Kato et al., 2007; cited from earlier work

T4 sequence (P68400 whole entry): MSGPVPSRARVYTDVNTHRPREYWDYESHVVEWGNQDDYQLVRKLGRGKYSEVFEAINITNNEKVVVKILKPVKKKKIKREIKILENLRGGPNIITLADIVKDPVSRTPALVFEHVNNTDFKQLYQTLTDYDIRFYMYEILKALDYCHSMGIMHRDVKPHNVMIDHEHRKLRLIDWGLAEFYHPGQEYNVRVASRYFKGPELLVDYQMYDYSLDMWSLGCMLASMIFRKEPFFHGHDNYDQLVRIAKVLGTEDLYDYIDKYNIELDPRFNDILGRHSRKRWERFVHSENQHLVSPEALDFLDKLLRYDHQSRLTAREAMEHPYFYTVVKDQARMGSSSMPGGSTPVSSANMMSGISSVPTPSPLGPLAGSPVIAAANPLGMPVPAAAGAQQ
T16 sequence (P07947 whole entry): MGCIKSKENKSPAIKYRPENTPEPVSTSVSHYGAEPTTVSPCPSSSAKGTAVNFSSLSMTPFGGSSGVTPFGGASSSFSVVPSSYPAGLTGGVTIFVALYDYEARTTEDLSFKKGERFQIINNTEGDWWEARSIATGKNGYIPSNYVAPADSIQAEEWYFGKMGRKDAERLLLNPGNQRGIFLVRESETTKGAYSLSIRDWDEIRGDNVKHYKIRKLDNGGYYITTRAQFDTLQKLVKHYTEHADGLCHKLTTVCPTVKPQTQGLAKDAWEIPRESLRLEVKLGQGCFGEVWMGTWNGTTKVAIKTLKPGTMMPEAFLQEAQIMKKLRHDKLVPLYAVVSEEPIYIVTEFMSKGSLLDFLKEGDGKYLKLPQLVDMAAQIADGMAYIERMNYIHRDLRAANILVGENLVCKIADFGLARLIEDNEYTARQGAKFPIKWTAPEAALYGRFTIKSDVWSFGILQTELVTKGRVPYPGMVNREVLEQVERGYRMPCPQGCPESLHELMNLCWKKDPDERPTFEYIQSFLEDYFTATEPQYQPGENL
T20 sequence (Q9H792 whole entry): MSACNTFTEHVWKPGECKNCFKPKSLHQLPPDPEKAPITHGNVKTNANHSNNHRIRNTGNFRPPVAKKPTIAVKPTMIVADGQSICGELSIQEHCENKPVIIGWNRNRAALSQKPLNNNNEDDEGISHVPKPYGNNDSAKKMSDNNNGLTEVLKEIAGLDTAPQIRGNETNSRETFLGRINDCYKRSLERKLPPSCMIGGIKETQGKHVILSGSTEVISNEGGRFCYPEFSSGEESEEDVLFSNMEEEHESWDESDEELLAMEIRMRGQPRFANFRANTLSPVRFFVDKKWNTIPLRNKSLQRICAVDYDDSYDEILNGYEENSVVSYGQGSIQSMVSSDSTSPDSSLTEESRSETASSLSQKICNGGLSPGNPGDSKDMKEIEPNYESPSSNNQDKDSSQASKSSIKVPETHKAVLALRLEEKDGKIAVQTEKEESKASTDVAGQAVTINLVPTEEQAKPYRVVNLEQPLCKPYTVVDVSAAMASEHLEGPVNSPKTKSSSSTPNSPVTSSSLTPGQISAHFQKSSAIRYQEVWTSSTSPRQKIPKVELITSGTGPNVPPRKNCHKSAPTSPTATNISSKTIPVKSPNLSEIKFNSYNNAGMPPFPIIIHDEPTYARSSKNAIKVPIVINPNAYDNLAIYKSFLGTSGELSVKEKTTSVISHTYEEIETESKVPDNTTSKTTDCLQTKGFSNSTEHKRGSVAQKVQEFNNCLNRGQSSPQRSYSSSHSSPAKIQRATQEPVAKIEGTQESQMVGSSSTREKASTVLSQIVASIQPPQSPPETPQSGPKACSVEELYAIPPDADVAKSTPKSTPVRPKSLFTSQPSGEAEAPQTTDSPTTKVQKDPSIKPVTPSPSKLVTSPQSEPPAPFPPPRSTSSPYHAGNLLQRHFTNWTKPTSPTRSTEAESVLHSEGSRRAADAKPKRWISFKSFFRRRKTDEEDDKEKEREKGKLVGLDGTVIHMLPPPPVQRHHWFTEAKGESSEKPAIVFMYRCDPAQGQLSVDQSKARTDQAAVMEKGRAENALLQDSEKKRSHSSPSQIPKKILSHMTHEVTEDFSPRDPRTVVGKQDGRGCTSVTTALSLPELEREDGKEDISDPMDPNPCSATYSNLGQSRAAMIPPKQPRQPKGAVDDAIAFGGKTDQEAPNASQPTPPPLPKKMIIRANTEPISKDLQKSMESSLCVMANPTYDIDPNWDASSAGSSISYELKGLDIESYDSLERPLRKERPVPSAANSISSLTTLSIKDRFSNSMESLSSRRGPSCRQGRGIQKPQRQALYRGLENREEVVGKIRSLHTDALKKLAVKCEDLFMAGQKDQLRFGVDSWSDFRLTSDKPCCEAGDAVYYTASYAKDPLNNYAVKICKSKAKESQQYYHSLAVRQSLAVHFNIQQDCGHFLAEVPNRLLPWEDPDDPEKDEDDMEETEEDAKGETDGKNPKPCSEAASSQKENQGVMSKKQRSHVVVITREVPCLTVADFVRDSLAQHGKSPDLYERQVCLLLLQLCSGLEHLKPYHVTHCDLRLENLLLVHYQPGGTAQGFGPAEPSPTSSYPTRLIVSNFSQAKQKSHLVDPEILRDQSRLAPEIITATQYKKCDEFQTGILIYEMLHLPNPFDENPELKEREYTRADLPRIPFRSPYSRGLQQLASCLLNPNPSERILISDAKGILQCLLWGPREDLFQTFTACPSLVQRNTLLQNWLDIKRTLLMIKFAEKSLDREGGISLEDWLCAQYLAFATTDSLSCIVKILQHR
T13 sequence (P06239 whole entry): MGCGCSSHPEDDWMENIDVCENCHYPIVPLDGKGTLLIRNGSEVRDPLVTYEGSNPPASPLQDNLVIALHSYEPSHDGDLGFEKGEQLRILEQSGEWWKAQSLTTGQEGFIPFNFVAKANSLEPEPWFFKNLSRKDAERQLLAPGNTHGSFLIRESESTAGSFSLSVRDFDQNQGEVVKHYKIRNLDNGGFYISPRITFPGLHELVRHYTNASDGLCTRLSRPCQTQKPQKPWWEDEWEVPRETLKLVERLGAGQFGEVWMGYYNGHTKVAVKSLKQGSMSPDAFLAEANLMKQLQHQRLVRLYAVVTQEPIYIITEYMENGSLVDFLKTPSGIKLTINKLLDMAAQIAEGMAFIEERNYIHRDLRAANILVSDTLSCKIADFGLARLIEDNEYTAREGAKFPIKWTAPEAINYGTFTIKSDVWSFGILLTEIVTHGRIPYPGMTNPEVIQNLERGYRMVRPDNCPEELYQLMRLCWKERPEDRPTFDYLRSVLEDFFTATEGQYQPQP
T6 sequence (Q9Y572 whole entry): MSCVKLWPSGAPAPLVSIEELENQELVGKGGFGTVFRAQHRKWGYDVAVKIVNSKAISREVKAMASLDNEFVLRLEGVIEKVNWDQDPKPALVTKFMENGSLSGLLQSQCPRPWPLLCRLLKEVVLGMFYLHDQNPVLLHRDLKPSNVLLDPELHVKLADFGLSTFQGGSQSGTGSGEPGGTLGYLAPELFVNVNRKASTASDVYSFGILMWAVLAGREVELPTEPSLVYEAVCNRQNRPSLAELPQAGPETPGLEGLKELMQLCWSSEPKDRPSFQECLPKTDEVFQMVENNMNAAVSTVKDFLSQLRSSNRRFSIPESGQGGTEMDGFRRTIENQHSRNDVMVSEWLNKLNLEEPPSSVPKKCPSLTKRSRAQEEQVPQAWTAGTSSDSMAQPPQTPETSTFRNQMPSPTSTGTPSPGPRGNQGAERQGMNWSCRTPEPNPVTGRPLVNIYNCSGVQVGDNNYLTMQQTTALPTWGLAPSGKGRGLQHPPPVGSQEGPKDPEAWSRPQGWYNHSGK
T2 sequence (Q15120 whole entry): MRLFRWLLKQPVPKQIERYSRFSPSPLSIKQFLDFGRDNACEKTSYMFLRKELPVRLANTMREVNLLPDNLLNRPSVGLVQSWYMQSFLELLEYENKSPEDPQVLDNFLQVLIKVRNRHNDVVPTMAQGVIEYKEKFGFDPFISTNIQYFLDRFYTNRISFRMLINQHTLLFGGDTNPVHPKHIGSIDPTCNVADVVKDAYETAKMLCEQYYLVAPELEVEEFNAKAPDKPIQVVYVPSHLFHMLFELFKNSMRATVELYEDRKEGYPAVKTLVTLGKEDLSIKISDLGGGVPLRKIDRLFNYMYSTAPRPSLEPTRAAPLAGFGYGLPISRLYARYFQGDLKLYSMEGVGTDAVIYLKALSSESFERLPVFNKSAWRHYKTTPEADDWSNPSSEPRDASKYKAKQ
T17 sequence (P04629 33-796): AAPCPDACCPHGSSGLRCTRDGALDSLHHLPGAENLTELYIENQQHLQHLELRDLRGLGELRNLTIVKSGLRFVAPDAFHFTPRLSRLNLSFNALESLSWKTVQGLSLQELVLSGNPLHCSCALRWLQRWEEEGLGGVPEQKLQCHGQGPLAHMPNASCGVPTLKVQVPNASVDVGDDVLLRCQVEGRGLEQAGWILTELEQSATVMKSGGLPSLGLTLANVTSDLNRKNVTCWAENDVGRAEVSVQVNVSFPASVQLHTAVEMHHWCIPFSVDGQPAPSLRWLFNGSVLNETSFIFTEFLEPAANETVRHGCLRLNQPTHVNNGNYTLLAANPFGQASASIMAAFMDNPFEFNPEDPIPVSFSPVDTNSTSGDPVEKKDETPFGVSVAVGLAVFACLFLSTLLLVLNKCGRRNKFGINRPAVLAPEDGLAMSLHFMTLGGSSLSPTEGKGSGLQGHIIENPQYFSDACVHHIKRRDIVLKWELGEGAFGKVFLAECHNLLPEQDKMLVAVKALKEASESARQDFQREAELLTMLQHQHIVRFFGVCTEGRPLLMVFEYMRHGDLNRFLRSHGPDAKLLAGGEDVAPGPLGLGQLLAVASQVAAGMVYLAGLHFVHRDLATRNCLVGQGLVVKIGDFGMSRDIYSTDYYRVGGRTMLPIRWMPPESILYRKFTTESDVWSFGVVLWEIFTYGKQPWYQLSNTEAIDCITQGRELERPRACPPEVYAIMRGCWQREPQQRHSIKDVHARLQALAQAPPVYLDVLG

## O=C1Nc2ccc(I)cc2/C1=C/c1cc(Br)c(O)c(Br)c1 [GW5074]
382 unique human kinases [1]
  pIC50: 5.58
382 unique human kinases [2]; BRAF (R506_K507insVLR)
  pIC50: […]
382 unique human kinases [2]; BRAF (T599_V600insT)
  pIC50: […]
382 unique human kinases [2]; BRAF (d485-489/P490Y)
  pIC50: […]
382 unique human kinases [2]; BRAF-FAM131B (Fex2Bex9)
  pIC50: […]
382 unique human kinases [2]; BRAF-KIAA1549 (Kex15Bex9)
  pIC50: […]
382 unique human kinases [2]; BRAF-KIAA1549 (Kex16Bex9)
  pIC50: […]
382 unique human kinases [2]; BRAF-SRGAP3 (Sex12Bex9)
  pIC50: […]
382 unique human kinases [3]
  pIC50: 4.92
382 unique human kinases [4]
  pIC50: 4.49
382 unique human kinases [5]
  pIC50: 6.40
382 unique human kinases [6]
  pIC50: 5.18
382 unique human kinases [7]
  pIC50: 5.97
382 unique human kinases [8]
  pIC50: 7.85
382 unique human kinases [9]
  pIC50: 5.73
382 unique human kinases [10]
  pIC50: 5.76
PDK4/PDKH4
  IC50: 2.51e-06 M
PDK2/PDHK2
  IC50: 6.39e-06 M

## C[C@@H]1C[C@H]2O[C@@H]2/C=C\C=C\C(=O)Cc2c(Cl)c(O)cc(O)c2C(=O)O1 [Radicicol]
[11]
  pIC50: 6.20
ABL2/ARG
  remaining activity at 10 µM: 117%
[12]
  pKd: 3.15
LCK
  remaining activity at 10 µM: 119%
TRKC
  remaining activity at 10 µM: 98.6%
FGR
  remaining activity at 10 µM: 112%
YES/YES1
  remaining activity at 10 µM: 103%
TRKA
  remaining activity at 10 µM: 106%
PASK
  remaining activity at 10 µM: 94.4%
16-kinase panel
  activity against the 16-kinase panel: inactive
FYN
  remaining activity at 10 µM: 110%
DDR1
  remaining activity at 10 µM: 105%
ABL1
  remaining activity at 10 µM: 106%
PEAK1
  remaining activity at 10 µM: 104%
LYN B
  remaining activity at 10 µM: 114%
BLK
  remaining activity at 10 µM: 104%
c-Src
  remaining activity at 10 µM: 96.8%
[13]
  pIC50: 3.40 to 3.64
